Toxic doses and inconclusive results are not listed.
Test system: L1210 leukemia ip in BDF1 mice, survival T/C
Experiment: NCI In Vivo Anticancer Drug Screen. Data for tumor model L1210 Leukemia (intraperitoneal) in B6D2F1 (BDF1) mice
Settings: endpoint: mean survival time, higher = longer survival
Summary of the method: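 Each compound was tested against a transplantable tumor grown in mice. The endpoint was survival, with treated animals benchmarked against vehicle controls as a simple ratio.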

With CN(C)C(=O)Nc1nc2cc(Cl)c(Cl)cc2[nH]1 the T/C (dose: 100.0 mg/kg/injection, schedule: Q01DX001 (ip), vehicle: Klucel (hydroxypropylcellulose) (HPC)) was 98 % of control, the T/C (dose: 200.0 mg/kg/injection, schedule: Q01DX001 (ip), vehicle: Klucel (hydroxypropylcellulose) (HPC)) was 100 % of control and the T/C (dose: 400.0 mg/kg/injection, schedule: Q01DX001 (ip), vehicle: Klucel (hydroxypropylcellulose) (HPC)) was 94 % of control.
For Brc1ccc(C[n+]2ccccc2)cc1, the T/C (dose: 12.5 mg/kg/injection, schedule: Q04DX003 (ip), vehicle: saline) was 98 % of control, the T/C (dose: 18.75 mg/kg/injection, schedule: Q01DX009 (ip), vehicle: saline) was 93 % of control and the T/C (dose: 25.0 mg/kg/injection, schedule: Q04DX003 (ip), vehicle: saline) was 97 % of control. The T/C (dose: 37.5 mg/kg/injection, schedule: Q01DX009 (ip), vehicle: saline) was 91 % of control, the T/C (dose: 50.0 mg/kg/injection, schedule: Q04DX003 (ip), vehicle: saline) was 105 % of control and the T/C (dose: 75.0 mg/kg/injection, schedule: Q04DX003 (ip), vehicle: saline) was 92 % of control.
In the case of CC(Cl)CNC(=O)N(CC(C)Cl)N=O (centres undefined), the T/C (dose: 8.0 mg/kg/injection, schedule: Q01DX001 (ip), vehicle: carboxymethylcellulose (CMC)) is reported as 108 % of control, the T/C (dose: 16.0 mg/kg/injection, schedule: Q01DX001 (ip), vehicle: carboxymethylcellulose (CMC)) is reported as 101 % of control and the T/C (dose: 31.0 mg/kg/injection, schedule: Q01DX001 (ip), vehicle: carboxymethylcellulose (CMC)) is reported as 97 % of control. The T/C (dose: 62.0 mg/kg/injection, schedule: Q01DX001 (ip), vehicle: carboxymethylcellulose (CMC)) was 100 % of control, the T/C (dose: 125.0 mg/kg/injection, schedule: Q01DX001 (ip), vehicle: carboxymethylcellulose (CMC)) was 97 % of control and the T/C (dose: 250.0 mg/kg/injection, schedule: Q01DX001 (ip), vehicle: carboxymethylcellulose (CMC)) was 101 % of control. The T/C (dose: 375.0 mg/kg/injection, schedule: Q01DX001 (ip), vehicle: carboxymethylcellulose (CMC)) was 103 % of control, the T/C (dose: 500.0 mg/kg/injection, schedule: Q01DX001 (ip), vehicle: carboxymethylcellulose (CMC)) was 122 % of control and the T/C (dose: 750.0 mg/kg/injection, schedule: Q01DX001 (ip), vehicle: carboxymethylcellulose (CMC)) was 197 % of control. The T/C (dose: 1000.0 mg/kg/injection, schedule: Q01DX001 (ip), vehicle: carboxymethylcellulose (CMC)) was 240 % of control.
With COc1ccc(O)c(/C=N\N=C\c2cc(OC)ccc2O)c1 the T/C (dose: 100.0 mg/kg/injection, schedule: Q01DX009 (ip), vehicle: Klucel (hydroxypropylcellulose) (HPC)) was 106 % of control, the T/C (dose: 200.0 mg/kg/injection, schedule: Q01DX009 (ip), vehicle: Klucel (hydroxypropylcellulose) (HPC)) was 101 % of control and the T/C (dose: 400.0 mg/kg/injection, schedule: Q01DX009 (ip), vehicle: Klucel (hydroxypropylcellulose) (HPC)) was 95 % of control.
For NC(=O)Cn1cnc2c(=S)nc[nH]c21, the T/C (dose: 6.25 mg/kg/injection, schedule: Q01DX009 (ip), vehicle: saline with Tween-80) was 109 % of control, the T/C (dose: 12.5 mg/kg/injection, schedule: Q01DX009 (ip), vehicle: saline with Tween-80) was 104 % of control and the T/C (dose: 12.5 mg/kg/injection, schedule: Q04DX003 (ip), vehicle: saline with Tween-80) was 104 % of control. The T/C (dose: 25.0 mg/kg/injection, schedule: Q01DX009 (ip), vehicle: saline with Tween-80) was 101 % of control and the T/C (dose: 25.0 mg/kg/injection, schedule: Q04DX003 (ip), vehicle: saline with Tween-80) was 102 % of control.
CCN1c2c(nc(N)[nH]c2=O)NCC1CNc1ccc(C(=O)NC(CCC(=O)O)C(=O)O)cc1 (centres undefined) was tested, and the T/C (dose: 100.0 mg/kg/injection, schedule: Q01DX009 (ip), vehicle: saline) was 103 % of control, the T/C (dose: 100.0 mg/kg/injection, schedule: Q04DX003 (ip), vehicle: saline) was 108 % of control and the T/C (dose: 200.0 mg/kg/injection, schedule: Q01DX009 (ip), vehicle: saline) was 115 % of control. The T/C (dose: 200.0 mg/kg/injection, schedule: Q04DX003 (ip), vehicle: saline) was 104 % of control, the T/C (dose: 400.0 mg/kg/injection, schedule: Q01DX009 (ip), vehicle: saline) was 94 % of control and the T/C (dose: 400.0 mg/kg/injection, schedule: Q04DX003 (ip), vehicle: saline) was 103 % of control.
For O=C(O)C(CO)c1ccc(F)cc1 (centres undefined), the T/C (dose: 100.0 mg/kg/injection, schedule: Q01DX001 (ip), vehicle: carboxymethylcellulose (CMC)) was 108 % of control, the T/C (dose: 200.0 mg/kg/injection, schedule: Q01DX001 (ip), vehicle: carboxymethylcellulose (CMC)) was 106 % of control and the T/C (dose: 400.0 mg/kg/injection, schedule: Q01DX001 (ip), vehicle: carboxymethylcellulose (CMC)) was 108 % of control.
In the case of O=C(O)c1ccccc1C(=O)Nc1ccc(F)cc1, the T/C (dose: 100.0 mg/kg/injection, schedule: Q04DX003 (ip), vehicle: Klucel (hydroxypropylcellulose) (HPC)) is reported as 103 % of control, the T/C (dose: 200.0 mg/kg/injection, schedule: Q01DX001 (ip), vehicle: saline) is reported as 106 % of control and the T/C (dose: 200.0 mg/kg/injection, schedule: Q04DX003 (ip), vehicle: Klucel (hydroxypropylcellulose) (HPC)) is reported as 87 % of control. The T/C (dose: 400.0 mg/kg/injection, schedule: Q01DX001 (ip), vehicle: saline) was 96 % of control and the T/C (dose: 400.0 mg/kg/injection, schedule: Q04DX003 (ip), vehicle: Klucel (hydroxypropylcellulose) (HPC)) was 94 % of control.
With CC(C)c1oc2ccccc2c1C(=O)c1ccncc1 the T/C (dose: 75.0 mg/kg/injection, schedule: Q04DX003 (ip), vehicle: saline with Tween-80) was 97 % of control, the T/C (dose: 150.0 mg/kg/injection, schedule: Q04DX003 (ip), vehicle: saline with Tween-80) was 101 % of control and the T/C (dose: 300.0 mg/kg/injection, schedule: Q04DX003 (ip), vehicle: saline with Tween-80) was 101 % of control.

Source: PubChem BioAssay AID248 (DTP/NCI, 2004)
